Reference: publication PMC4965013, “Open Source Drug Discovery with the Malaria Box Compound Collection for Neglected Diseases and Beyond” (PLoS Pathogens, 2016)
Like-named read-outs stand apart in the source and are kept apart here. One block for each molecule: values may come before it.

Key:
[1] = system: P. falciparum 3D7; assay: [3H]-hypoxanthine growth inhibition, modified HCO3- or O2; format: cell-based; conditions: for IC50: Plasmodium falciparum
[2] = system: P. falciparum 3D7 trophozoites; assay: Metabolomic fingerprint profiling LC-MS; format: cell-based, Plasmodium falciparum; set-up: UDP-D-glucose / ADP-D-glucose: unit not given here; conditions: for Acetyllysine / N-acetyl-L-ornithine / N-carbamoyl-L-aspartate / NADPH / dAMP / dCMP / dTDP / dTMP / dTTP / dihydroorotate / orotate / DLH / DLS/SDL/SID / PD / PEE / PVNF / 3-phosphoglycerate / ADP-D-glucose / ATP / CDP / D-sedoheptulose-1/7-phosphate / FAD / GMP / NAD+ / NADP+ / Octoluse Bisphosphate / Pyroglutamic acid / UDP-D-glucose / UDP-D-glucuronate / UDP-N-acetyl-glucosamine / UDP / UMP / UTP / a-ketoglutarate / citrate/isocitrate / cytidine / dATP / dGMP/AMP / fumarate / glucose-1/6-phosphate / glycerate / guanine / guanosine / hypoxanthine / indole / inosine / nicotinate / ornithine / phosphoenolpyruvate / pyruvate / ribose-phosphate / sarcosine/alanine / sn-glycerol-3-phosphate / succinate/methylmalonic acid / uridine / xanthosine: S2 Table Metabolomics; for Acetyllysine: metabolite Acetyllysine; for N-acetyl-L-ornithine: metabolite N-acetyl-L-ornithine; for N-carbamoyl-L-aspartate: metabolite N-carbamoyl-L-aspartate; for NADPH: metabolite NADPH; for dAMP: metabolite dAMP; for dCMP: metabolite dCMP; for dTDP: metabolite dTDP; for dTMP: metabolite dTMP; for dTTP: metabolite dTTP; for dihydroorotate: metabolite dihydroorotate; for orotate: metabolite orotate; for DLH: peptide DLH; for DLS/SDL/SID: peptide DLS/SDL/SID; for PD: peptide PD; for PEE: peptide PEE; for PVNF: peptide PVNF; for 3-phosphoglycerate: metabolite 3-phosphoglycerate; for ADP-D-glucose: metabolite ADP-D-glucose; for ATP: metabolite ATP; for CDP: metabolite CDP; for CDP / D-sedoheptulose-1/7-phosphate / GMP / Octoluse Bisphosphate / UDP / UMP / UTP / citrate/isocitrate / dGMP/AMP / fumarate / glucose-1/6-phosphate / glycerate / guanine / guanosine / inosine / pyruvate / sarcosine/alanine / succinate/methylmalonic acid / uridine / xanthosine: change in metabolite level after compound treatment; for D-sedoheptulose-1/7-phosphate: metabolite D-sedoheptulose-1/7-phosphate; for FAD: metabolite FAD; for GMP: metabolite GMP; for NAD+: metabolite NAD+; for NADP+: metabolite NADP+; for Octoluse Bisphosphate: metabolite Octoluse Bisphosphate; for Pyroglutamic acid: metabolite Pyroglutamic acid; for UDP-D-glucose: metabolite UDP-D-glucose; for UDP-D-glucuronate: metabolite UDP-D-glucuronate; for UDP-N-acetyl-glucosamine: metabolite UDP-N-acetyl-glucosamine; for UDP: metabolite UDP; for UMP: metabolite UMP; for UTP: metabolite UTP; for a-ketoglutarate: metabolite a-ketoglutarate; for citrate/isocitrate: metabolite citrate/isocitrate; for cytidine: metabolite cytidine; for dATP: metabolite dATP; for dGMP/AMP: metabolite dGMP/AMP; for fumarate: metabolite fumarate; for glucose-1/6-phosphate: metabolite glucose-1/6-phosphate; for glycerate: metabolite glycerate; for guanine: metabolite guanine; for guanosine: metabolite guanosine; for hypoxanthine: metabolite hypoxanthine; for indole: metabolite indole; for inosine: metabolite inosine; for 2_3-Diphosphoglyceric acid / 4-phosphopantothenate / 6-phospho-D-gluconate / FMN / IMP / Pyrophosphate / Sedoheptoluse bisphosphate / cyclic-AMP / glutathione disulfide / lactate / myo-inositol: metabolite level change after treatment; for nicotinate: metabolite nicotinate; for ornithine: metabolite ornithine; for phosphoenolpyruvate: metabolite phosphoenolpyruvate; for pyruvate: metabolite pyruvate; for ribose-phosphate: metabolite ribose-phosphate; for sarcosine/alanine: metabolite sarcosine/alanine; for sn-glycerol-3-phosphate: metabolite sn-glycerol-3-phosphate; for succinate/methylmalonic acid: metabolite succinate/methylmalonic acid; for uridine: metabolite uridine; for xanthosine: metabolite xanthosine
[3] = system: P. falciparum; assay: EC50 listed in S2 Table Metabolomics (used to set the concentration tested); format: cell-based; conditions: Plasmodium falciparum; EC50 used for Factor_XEC50 in metabolomics; read-out: EC50_nM
[4] = 3D7, read-out: P. falciparum 3D7 IC50 HCO3- (2g/L), standard media
[5] = 3D7, HCO3- reduced media, read-out: P. falciparum 3D7 IC50 HCO3- reduced

EC50 [3]: 85.7 nM
Compound: Cc1cc(C)cc(Nc2cc(C)nc3nc(C(F)(F)F)nn23)c1 [MMV011259]
fold change (IC50reduced/IC50normal) [1]: 2.2 | IC50 [1, 4]: 59 nM | IC50 [1, 5]: 132 nM | Acetyllysine [2]: -0.3746 | N-acetyl-L-ornithine [2]: -0.3462 | N-carbamoyl-L-aspartate [2]: 3.644 | NADPH [2]: -0.3366 | dAMP [2]: -0.7598 | dCMP [2]: -0.2996 | dTDP [2]: -1.147 | dTMP [2]: -1.715 | dTTP [2]: -1.159 | dihydroorotate [2]: 4.069 | orotate [2]: -1.5889 | DLH [2]: -0.4322 | DLS/SDL/SID [2]: -0.5334 | PD [2]: -0.3116 | PEE [2]: -0.461 | PVNF [2]: -0.5009 | 3-phosphoglycerate [2]: -0.8854 | ADP-D-glucose [2]: -0.2124 | ATP [2]: -0.1449 | CDP [2]: -0.8411 | D-sedoheptulose-1/7-phosphate [2]: 0.2305 | FAD [2]: -0.12 | GMP [2]: 0.1977 | NAD+ [2]: -0.2042 | NADP+ [2]: -0.294 | Octoluse Bisphosphate [2]: -0.4132 | Pyroglutamic acid [2]: -0.07042 | UDP-D-glucose [2]: -0.2997 | UDP-D-glucuronate [2]: -0.2701 | UDP-N-acetyl-glucosamine [2]: -0.5126 | UDP [2]: -1.399 | UMP [2]: -1.28 | UTP [2]: -1.133 | a-ketoglutarate [2]: -0.631 | citrate/isocitrate [2]: -1.3117 | cytidine [2]: 0.1757 | dATP [2]: 0.0538 | dGMP/AMP [2]: -0.551 | fumarate [2]: -0.9126 | glucose-1/6-phosphate [2]: -0.8385 | glycerate [2]: -1.011 | guanine [2]: -0.4133 | guanosine [2]: -0.4081 | hypoxanthine [2]: -0.3413 | indole [2]: -0.1801 | inosine [2]: -0.6501 | 2_3-Diphosphoglyceric acid [2]: -0.2003 | 4-phosphopantothenate [2]: -0.5735 | 6-phospho-D-gluconate [2]: -1.0674 | FMN [2]: -0.3875 | IMP [2]: -0.2517 | Pyrophosphate [2]: -0.0001746 | Sedoheptoluse bisphosphate [2]: -0.416 | cyclic-AMP [2]: -0.9316 | glutathione disulfide [2]: -0.2721 | lactate [2]: -0.3904 | myo-inositol [2]: -0.254 | nicotinate [2]: -0.9132 | ornithine [2]: -0.1147 | phosphoenolpyruvate [2]: -0.7531 | pyruvate [2]: -0.8729 | ribose-phosphate [2]: -0.4441 | sarcosine/alanine [2]: -0.2762 | sn-glycerol-3-phosphate [2]: -0.2294 | succinate/methylmalonic acid [2]: -0.3522 | uridine [2]: -1.619 | xanthosine [2]: -0.6868

EC50 [3]: 82.2 nM
Compound: CNCCCNc1ccnc2cc(Cl)ccc12 [MMV020500]
fold change (IC50reduced/IC50normal) [1]: 3.9 | IC50 [1, 4]: 40 nM | IC50 [1, 5]: 155 nM | Acetyllysine [2]: -2.213 | N-acetyl-L-ornithine [2]: -0.8185 | N-carbamoyl-L-aspartate [2]: 0.6081 | NADPH [2]: 0.8295 | dAMP [2]: 1.814 | dCMP [2]: 0.8961 | dTDP [2]: 0.7101 | dTMP [2]: 2.186 | dTTP [2]: -0.2992 | dihydroorotate [2]: 0.1598 | orotate [2]: 0.0865 | DLH [2]: -2.137 | DLS/SDL/SID [2]: -0.7574 | PD [2]: -1.597 | PEE [2]: -0.2916 | PVNF [2]: -1.612 | 3-phosphoglycerate [2]: 0.07452 | ADP-D-glucose [2]: -0.08737 | ATP [2]: -0.9785 | CDP [2]: 0.5532 | D-sedoheptulose-1/7-phosphate [2]: 1.176 | FAD [2]: -0.249 | GMP [2]: 1.138 | NAD+ [2]: 0.8214 | NADP+ [2]: -0.06525 | Octoluse Bisphosphate [2]: -0.4524 | Pyroglutamic acid [2]: 0.1099 | UDP-D-glucose [2]: -0.02951 | UDP-D-glucuronate [2]: -0.3318 | UDP-N-acetyl-glucosamine [2]: 0.05445 | UDP [2]: 0.8779 | UMP [2]: 0.5345 | UTP [2]: -0.9493 | a-ketoglutarate [2]: 0.1415 | citrate/isocitrate [2]: -0.9893 | cytidine [2]: -0.1492 | dATP [2]: -0.4735 | dGMP/AMP [2]: 1.367 | fumarate [2]: -0.1707 | glucose-1/6-phosphate [2]: -0.009969 | glycerate [2]: -0.6605 | guanine [2]: 0.2615 | guanosine [2]: -0.1451 | hypoxanthine [2]: -0.2256 | indole [2]: -0.03127 | inosine [2]: 0.04049 | 2_3-Diphosphoglyceric acid [2]: -0.286 | 4-phosphopantothenate [2]: 0.7597 | 6-phospho-D-gluconate [2]: 0.1729 | FMN [2]: 0.009843 | IMP [2]: 0.8224 | Pyrophosphate [2]: -0.4794 | Sedoheptoluse bisphosphate [2]: -0.0186 | cyclic-AMP [2]: 0.9961 | glutathione disulfide [2]: -0.1428 | lactate [2]: -0.3926 | myo-inositol [2]: -0.6279 | nicotinate [2]: 0.7754 | ornithine [2]: -0.4966 | phosphoenolpyruvate [2]: 0.07414 | pyruvate [2]: -0.1857 | ribose-phosphate [2]: -0.6716 | sarcosine/alanine [2]: -0.5483 | sn-glycerol-3-phosphate [2]: -0.4228 | succinate/methylmalonic acid [2]: 0.4498 | uridine [2]: -0.2827 | xanthosine [2]: -0.8962
